The solubility is the concentration that dissolves in the medium under given conditions.

Where two headings read alike, the source gives them in different places.

A short description of data set [1]: physchem.
For data set [2] the following is noted: cited from earlier work.
The conditions of data set [3]: assuming 1:1 stoichiometry; cited from earlier work.
For data set [4] the following is noted: assuming 1:1 stoichiometry; cited from earlier work. This is another data set of the same source.
The conditions of data set [5]: cited from earlier work. This is another data set of the same source.
Data set [6] in a line: Extraction of lipophilic acids into fluorous membranes, 1H NMR. The format is physicochemical. Conditions: aqueous buffered solutions of 10^−3.5 M acid; 1H NMR of membrane.
Data set [7] in a line: Solubility in perfluoro(tributylamine).
Procedure: To explore the possibility that salts of ionic sites might be more soluble in fluorous phases if their hydrophilic ion were complexed to a receptor, the solubilities of several ion receptors in PFPHP and perfluoro(tributylamine) were tested.
The conditions of data set [8]: cited from earlier work. The source holds these as a separate data set.
[9] abbreviates: PFPHP saturated with substance, salts judged by resistance of soaked porous PTFE membranes.

On to `CCCCCCCCCCCCCCCCCCOC(=O)c1ccncc1` [Hydrogen Ionophre IV], for which the “solubility in PFPHP” value in data set [1] was “poorly soluble”.

On to `FC(F)(F)C(F)(F)C(F)(F)C(F)(F)C(F)(F)N(C(F)(F)C(F)(F)C(F)(F)C(F)(F)C(F)(F)F)C(F)(F)C(F)(F)C(F)(F)C(F)(F)C(F)(F)F` [perfluorotripentylamine], for which the “formal pKa” value in data set [2] is recorded as “smaller than −0.5”. Further, the “association with any ion tested” value in data set [2] (inorganic monocations) is recorded as “does not undergo measurable association”.

`FC(OC(F)(F)C(F)(OC(F)(F)C(F)(OC(F)(F)C(F)(OC(F)(F)C(F)(F)C(F)(F)F)C(F)(F)F)C(F)(F)F)C(F)(F)F)C(F)(F)F` (centres unmarked) [2H-perfluoro-5,8,11-trimethyl-3,6,9,12-tetraoxapentadecane]: in data set [3], the “formal association constant with Na^+” value was 2.3 M⁻¹. Further, the “formal association constant with Li^+” value in data set [4] was 1.5 M⁻¹.

Turning to `CCCCCCCCCCCCN(CCCCCCCCCCCC)CCCCCCCCCCCC` [tridodecylamine], the “solubility in PFPHP” value in data set [1] is reported as “poorly soluble”.

In the case of `CCCCCCCCCCCC[N+](C)(CCCCCCCCCCCC)CCCCCCCCCCCC.[Cl-]` [tridodecylmethylammonium chloride], the “solubility in PFPHP” value in data set [1] was “not soluble enough”.

For the compound “tetrakis-(decyl)ammonium tetraphenylborate”, the “log Kip” value in data set [5] (in cyclohexane) is 14.2.

Consider `CCCCCCCC[N+](CCCCCCCC)(CCCCCCCC)CCCCCCCC.[Cl-]` [tetraoctylammonium chloride], for which, in data set [5] (in 98.2 toluene-nitrobenzene), the “log Kip” value is listed as 14.9.

As for `FC(F)(F)c1cc([B-](c2cc(C(F)(F)F)cc(C(F)(F)F)c2)(c2cc(C(F)(F)F)cc(C(F)(F)F)c2)c2cc(C(F)(F)F)cc(C(F)(F)F)c2)cc(C(F)(F)F)c1.[Na+]`, in data set [1], the “solubility in PFPHP” value was “not soluble enough”.

With `CCCCCCCC(=O)O` [octanoic acid], in data set [6], the “extraction into fluorous membranes” value is on record as “not extracted to any significant amount”.

For the compound `CCCCCCCCCCCCCCCCCC(=O)N=c1cc2oc3cc(N(CC)CC)ccc3nc-2c2ccccc12` [Chromoionophroes I], the “solubility in PFPHP” value in data set [1] was “poorly soluble”.

Turning to `CCCCC(CCCC)OC(=O)CCCCCCCCCCOC(=O)Cc1ccc(N=c2cc3oc4cc(N(C)C)ccc4nc-3c3ccccc23)cc1` [Chromoionophroes II], the “solubility in PFPHP” value in data set [1] is listed as “poorly soluble”.

On to `CCCCCCCCC(CCCCCCCC)CN=c1cc2oc3cc(N(CC)CC)ccc3nc-2c2ccccc12` [Chromoionophroes III], for which, in data set [1], the “solubility in PFPHP” value is “poorly soluble”.

For `S=C(NCc1cccc(CNC(=S)Nc2ccccc2)c1)Nc1ccccc1`, the “solubility in PFPHP” value in data set [1] was “poorly soluble”.

`OC(c1cccc(C(O)(C(F)(F)F)C(F)(F)F)c1)(C(F)(F)F)C(F)(F)F`: in data set [1] (setting [9]), the “solubility in PFPHP” value is “poorly soluble”. Moreover, in data set [7], the “solubility in perfluoro(tributylamine)” value is on record as “poorly soluble”.

On to `FC(F)(F)C(F)(F)C(F)(F)C(F)(F)C(F)(F)C(F)(F)c1cc([B-](c2cc(C(F)(F)C(F)(F)C(F)(F)C(F)(F)C(F)(F)C(F)(F)F)cc(C(F)(F)C(F)(F)C(F)(F)C(F)(F)C(F)(F)C(F)(F)F)c2)(c2cc(C(F)(F)C(F)(F)C(F)(F)C(F)(F)C(F)(F)C(F)(F)F)cc(C(F)(F)C(F)(F)C(F)(F)C(F)(F)C(F)(F)C(F)(F)F)c2)c2cc(C(F)(F)C(F)(F)C(F)(F)C(F)(F)C(F)(F)C(F)(F)F)cc(C(F)(F)C(F)(F)C(F)(F)C(F)(F)C(F)(F)C(F)(F)F)c2)cc(C(F)(F)C(F)(F)C(F)(F)C(F)(F)C(F)(F)C(F)(F)F)c1.[Na+]` [compound 2], for which the solubility in data set [1] (organic solvent or mixture) was determined as 1400 µM.

On to `CCCC[N+](CCCC)(CCCC)CCCC.F[B-](F)(F)F` [tetrabutyl-ammonium tetrafluoroborate], for which the “log Kip” value in data set [5] (in α,α,α-trifluorotoluene) is given as 5.4.

For the compound `c1ccc(CSCc2ccccc2)cc1` [dibenzyl sulfide], the “solubility in PFPHP” value in data set [1] was “poorly soluble”.

As to `CCCCCCCCCCCC[N+](CCCCCCCCCCCC)(CCCCCCCCCCCC)CCCCCCCCCCCC.Clc1ccc([B-](c2ccc(Cl)cc2)(c2ccc(Cl)cc2)c2ccc(Cl)cc2)cc1` [ETH 500, tetradecylammonim tetrakis[p-chlorophenyl]borate], the “solubility in PFPHP” value in data set [1] (setting [9]) is reported as “not sufficiently soluble”.

On to `CC(C)[C@@H]1NC(=O)[C@H](C)OC(=O)[C@@H](C(C)C)NC(=O)[C@@H](C(C)C)OC(=O)[C@H](C(C)C)NC(=O)[C@H](C)OC(=O)[C@@H](C(C)C)NC(=O)[C@@H](C(C)C)OC(=O)[C@H](C(C)C)NC(=O)[C@H](C)OC(=O)[C@@H](C(C)C)NC(=O)[C@@H](C(C)C)OC1=O` [valinomycin], for which the “log K^potK,Na” value is −3.1 in data set [8] (after exposure to an extract of urine) and −3.9 in data set [8] (before exposure to an extract of urine). Further, the “solubility in PFPHP” value in data set [1] (setting [9]) is “poorly soluble”. Besides, the “solubility in perfluoro(tributylamine)” value in data set [7] is given as “poorly soluble”.

As for `C[C@H](CCC(=O)O)[C@H]1CC[C@H]2[C@@H]3[C@H](O)C[C@@H]4C[C@H](O)CC[C@]4(C)[C@H]3C[C@H](O)[C@]12C` [cholic acid], in data set [6], the “extraction into fluorous membranes” value is “not extracted to any significant amount”.
